Assay results: patent publication US20090233796A1, “HERBICIDAL COMPOSITION” (SYNGENTA CROP PROTECTION, INC., priority 2004, published 2009)

Tests used:
Assay type in all cases: in vivo
CYPERUS ROTUNDUS = assay: Compound (A) with glyphosate, weed plots; conditions: 2 DAA, No. 2.5
Text: (§1) The compositions were formulated as an emulsifyable concentrate (EC).
(§2) The results in the table under each application are the percentage of the plants that were killed.

CYPERUS SP. = assay: Compound (A) with glyphosate, weed plots
Text: as §1, §2

HORDEUM PUSILLUM = assay: Compound (A) with glyphosate, weed plots; conditions: 13 DAA, No. 2.6
Text: as §1, §2

Corn = assay: Compound (A) with prosulfuron, weed plots; conditions: 13 DAA, No. 3.26
Text: (§3) In these tests, […] and Compound (A) at rates equivalent to the sum of these. The compositions were formulated as an emulsifiable concentrate (EC).
(§4) The results in the tables under each application are the percentage of the plants that were killed.

Galium = assay: Compound (A) with prosulfuron, weed plots; conditions: 13 DAA, No. 3.24
Text: as §3, §4

Cyperus = assay: Compound (A) with sulcotrione, weed plots; conditions: 14 DAA, Trial 5.1
Protocol: In these tests, various weeds were treated with sulcotrione alone at an application rate equivalent to 1420 g per hectare, […] and Compound (A) at rates equivalent to the sum of these. The compositions were formulated as an emulsifyable concentrate (EC).
as §2

CCOC(=O)COc1ncccc1Oc1cc(-n2c(=O)cc(C(F)(F)F)n(C)c2=O)c(F)cc1Cl [Compound (A)]
percentage of the plants that were killed (CYPERUS ROTUNDUS; 10 g/ha): 40% | percentage of the plants that were killed (CYPERUS ROTUNDUS; 20 g/ha): 75% | percentage of the plants that were killed (CYPERUS SP.; 10 g/ha, 1 DAA, No. 2.3): 0% | percentage of the plants that were killed (CYPERUS SP.; 10 g/ha, 52 DAA, No. 2.4): 0% | percentage of the plants that were killed (CYPERUS SP.; 20 g/ha, 1 DAA, No. 2.3): 0% | percentage of the plants that were killed (CYPERUS SP.; 20 g/ha, 52 DAA, No. 2.4): 0% | percentage of the plants that were killed (HORDEUM PUSILLUM; 10 g/ha): 60% | percentage of the plants that were killed (HORDEUM PUSILLUM; 20 g/ha): 70% | percentage of the plants that were killed (Corn; 1.25 g/ha): 70% | percentage of the plants that were killed (Corn; 2.5 g/ha): 90% | percentage of the plants that were killed (Corn; 5 g/ha): 98% | percentage of the plants that were killed (Galium; 1.25 g/ha): 50% | percentage of the plants that were killed (Galium; 2.5 g/ha): 50% | percentage of the plants that were killed (Galium; 5 g/ha): 100% | percentage of the plants that were killed (Cyperus; 1.25 g/ha): 50% | percentage of the plants that were killed (Cyperus; 5 g/ha): 50%
